The supplement of paper PMC10307832

Experiments:
Assay in all cases: relative viability (nuclei count vs DMSO), 5 days (fraction); higher = more cells survive
[1] = compound: C[C@@H](C(=O)N[C@@H](C1CCCCC1)C(=O)N2CCC[C@H]2C(=O)N[C@@H]3[C@@H](CC4=CC=CC=C34)OCC#CC#CCO[C@@H]5CC6=CC=CC=C6[C@@H]5NC(=O)[C@@H]7CCCN7C(=O)[C@H](C8CCCCC8)NC(=O)[C@H](C)NC)NC [AZD5582] + CC1(C)CCC(c2ccc(Cl)cc2)=C(CN2CCN(c3ccc(C(=O)NS(=O)(=O)c4ccc(N[C@H](CCN5CCOCC5)CSc5ccccc5)c(S(=O)(=O)C(F)(F)F)c4)cc3)CC2)C1 [Navitoclax] (partner 0.5 µM)
Summary of the method: (§1)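 The day after seeding in 1536-well plates, lung cancer cell lines were treated by pin tool with a single drug, or with a fixed anchor-drug dose together with five library-drug doses (not always all listed) in √10 steps. After 5 days, a combined fix-and-stain solution (final 0.05% Triton X-100, 1% formaldehyde, 1 ug/ml Hoechst) was added. Nuclei counted on 4× images gave relative viability as treated counts over vehicle counts, reported as the median of duplicate plates.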

[2] = compound: C[C@@H](C(=O)N[C@@H](C1CCCCC1)C(=O)N2CCC[C@H]2C(=O)N[C@@H]3[C@@H](CC4=CC=CC=C34)OCC#CC#CCO[C@@H]5CC6=CC=CC=C6[C@@H]5NC(=O)[C@@H]7CCCN7C(=O)[C@H](C8CCCCC8)NC(=O)[C@H](C)NC)NC [AZD5582] + Cc1nc(Nc2ncc(C(=O)Nc3c(C)cccc3Cl)s2)cc(N2CCN(CCO)CC2)n1 [Dasatinib] (partner 0.075 µM)
Summary of the method: as §1

[3] = compound: Cn1nnc2c(C(N)=O)ncn2c1=O [Temozolomide] + Cc1cc(Nc2cc(N3CCN(C)CC3)nc(Sc3ccc(NC(=O)C4CC4)cc3)n2)n[nH]1 [Tozasertib] (partner 0.1 µM)
Summary of the method: as §1

[4] = compound: Cn1nnc2c(C(N)=O)ncn2c1=O [Temozolomide] + Nc1nc2[nH]cc(CCc3ccc(C(=O)N[C@@H](CCC(=O)O)C(=O)O)cc3)c2c(=O)[nH]1 [Pemetrexed] (partner 0.2 µM)
Summary of the method: as §1

Cell Line	relative viability ([1]; first compound 0.001581 µM)	relative viability ([1]; first compound 0.005 µM)	relative viability ([1]; first compound 0.01581 µM)	relative viability ([1]; first compound 0.05 µM)	relative viability ([2]; first compound 0.001581 µM)	relative viability ([2]; first compound 0.005 µM)	relative viability ([2]; first compound 0.01581 µM)	relative viability ([2]; first compound 0.05 µM)	relative viability ([3]; first compound 0.2 µM)	relative viability ([3]; first compound 0.6325 µM)	relative viability ([3]; first compound 2 µM)	relative viability ([3]; first compound 6.325 µM)	relative viability ([3]; first compound 20 µM)	relative viability ([4]; first compound 0.2 µM)	relative viability ([4]; first compound 0.6325 µM)	relative viability ([4]; first compound 2 µM)	relative viability ([4]; first compound 6.325 µM)	relative viability ([4]; first compound 20 µM)
HCC-827	1.09	1.01	0.972	1.04	0.342	0.218	0.289	0.411	0.428	0.436	0.409	0.458	0.114	0.176	0.273	0.249	0.264	0.16
HOP-62	0.945	0.917	1.08	1.14	0.657	0.797	0.506	0.689	0.534	0.418	0.367	0.376	0.348	0.302	0.264	0.287	0.314	0.294
IA-LM	0.499	0.538	0.951	0.714	–	–	–	–	–	–	–	–	–	–	–	–	–	–
LC-2-ad	0.331	0.454	0.468	0.384	0.629	0.774	0.461	0.531	0.429	0.517	0.505	0.41	0.422	0.281	0.296	0.279	0.291	0.287
LCLC-97TM1	–	0.329	0.347	0.32	0.748	0.91	0.768	0.825	0.186	0.242	0.212	0.184	0.191	0.195	0.198	0.177	0.156	0.209
LCLC-103H	–	–	–	–	0.411	0.475	0.403	0.152	0.486	0.481	0.566	0.456	0.413	0.467	0.461	0.519	0.465	0.515
LK-2	0.754	0.895	0.803	1.21	0.209	0.36	0.322	0.266	0.153	0.155	0.154	0.169	0.151	0.284	0.288	0.299	0.264	0.277
LOU-NH91	0.652	0.724	0.704	0.678	0.553	0.565	0.468	0.657	0.548	0.728	0.687	0.641	0.482	0.389	0.366	0.371	0.395	0.458
LU99A	0.882	0.998	0.805	0.976	0.443	0.608	0.537	0.483	0.259	0.262	0.275	0.259	0.303	0.208	0.179	0.175	0.185	0.252
LXF-289	0.948	0.935	0.919	0.934	0.228	0.236	0.154	0.13	0.241	0.208	0.216	0.169	0.186	0.941	0.877	0.868	0.857	0.868
NCI-H358	–	–	–	–	0.158	0.193	0.265	0.166	0.0983	0.101	0.104	0.106	0.115	0.196	0.173	0.18	0.164	0.17
NCI-H522	–	–	–	–	0.935	0.876	0.846	1.45	0.449	0.586	0.56	0.538	0.595	0.765	0.972	1.27	0.984	0.804
NCI-H650	–	–	–	–	0.447	0.418	0.305	0.308	0.704	0.771	0.735	0.681	0.804	0.934	0.902	0.963	0.96	0.961
NCI-H661	–	–	–	–	0.866	1.15	0.908	0.873	0.351	0.351	0.352	0.362	0.337	0.92	0.882	1.01	0.858	0.759
NCI-H727	0.409	0.426	0.366	0.483	0.317	0.319	0.505	0.274	0.54	0.629	0.764	0.591	0.531	–	–	–	–	–
NCI-H1299	1	1.07	1.08	1.04	–	–	–	–	–	–	–	–	–	–	–	–	–	–
NCI-H1563	–	–	–	–	0.412	0.456	0.447	0.461	–	–	–	–	–	0.71	0.798	0.744	0.739	0.747
NCI-H1623	–	–	–	–	0.514	0.582	0.559	0.433	–	0.421	0.365	0.475	0.293	–	–	–	–	–
NCI-H1648	–	–	–	–	–	–	–	–	–	0.525	0.397	0.448	0.435	–	0.614	0.554	0.696	0.82
NCI-H1792	0.608	0.632	0.578	0.836	0.861	0.911	0.819	1.03	–	–	–	–	–	1.11	0.993	0.954	0.819	1.01
NCI-H2342	–	–	–	–	0.316	0.315	0.27	0.319	0.49	0.57	0.492	0.598	0.346	0.653	0.86	0.914	0.708	0.769
SW 900	–	–	–	–	0.482	0.424	0.393	0.653	0.63	0.703	0.498	0.542	0.462	0.525	0.496	0.507	0.474	0.472
